What was measured:
[1] = target: T1, Leukotriene B4 receptor (Homo sapiens, UniProt Q9NPC1+Q15722); experiment: Ability to inhibit LTB4-induced chemotaxis of isolated human neutrophils.; assay type: functional
[2] = target: T1, Leukotriene B4 receptor; experiment: Ability to inhibit LTB4 binding to LTB receptors on isolated human neutrophils.; assay type: protein assay
[3] = target: Leukotriene B4 receptor (Cavia porcellus); experiment: Compound was evaluated for its ability to inhibit [3H]LTB4 binding to LTB4 receptors on guinea pig spleen membranes
[4] = target: T1, Leukotriene B4 receptor; experiment: Ability to inhibit LTB4-induced CD11b up-regulation on isolated human neutrophils in whole blood; assay type: functional, tissue-based
[5] = target: T1, Leukotriene B4 receptor; experiment: Ability to inhibit LTB4-induced CD11b up-regulation on isolated human neutrophils; assay type: functional
[6] = Ratio of CD11b(WB) IC50 to CD11b (IC)IC50; assay type: functional

O=C(O)c1ccc(F)cc1-c1ccc2c(c1)OC[C@H](Cc1ccc(C(F)(F)F)cc1)[C@H]2O
IC50 [1]: 1800 nM
IC50 [2]: 54 nM

CNC(=O)c1ccc(C(=O)O)c(-c2ccc3c(c2)OC[C@H](Cc2ccccc2)[C@H]3O)c1
IC50 [3]: 4700 nM

CC(C)c1ccc(C[C@H]2COc3cc(-c4cc(F)ccc4C(=O)O)ccc3[C@@H]2O)cc1
IC50 [1]: 210 nM
IC50 [2]: 190 nM

O=C(O)c1c(-c2ccc3c(c2)OC[C@H](Cc2ccccc2)[C@H]3O)cccc1C(F)(F)F
IC50 [4]: 890 nM
IC50 [5]: 750 nM
Ratio [6]: 1.2
IC50 [1]: 24 nM
IC50 [2]: 46 nM

O=C(O)c1ccc(Cl)cc1-c1ccc2c(c1)OC[C@H](Cc1ccc(F)cc1)[C@H]2O
IC50 [1]: 400 nM
IC50 [2]: 54 nM

O=C(O)c1ccc(Cl)cc1-c1ccc2c(c1)OC[C@H](Cc1ccc(C(F)(F)F)cc1)[C@H]2O
IC50 [1]: 9000 nM
IC50 [2]: 400 nM

O=C(O)c1ccc(Cl)cc1-c1ccc2c(c1)OC[C@H](Cc1ccc3ccccc3c1)[C@H]2O
IC50 [1]: 2250 nM
IC50 [2]: 100 nM

O=C(O)c1cc(F)ccc1-c1ccc2c(c1)OC[C@H](Cc1ccccc1)[C@H]2O
IC50 [1]: 300 nM
IC50 [2]: 24 nM

O=C(O)c1c(F)cc(F)cc1-c1ccc2c(c1)OC[C@H](Cc1ccccc1)[C@H]2O
IC50 [4]: 200 nM
IC50 [5]: 300 nM
Ratio [6]: 0.7
IC50 [1]: 40 nM
IC50 [2]: 5 nM

O=C(O)c1ccc(F)cc1-c1ccc2c(c1)OC[C@H](CCc1ccccc1)[C@H]2O
IC50 [1]: 32 nM
IC50 [2]: 35 nM

NS(=O)(=O)c1ccc(F)cc1-c1ccc2c(c1)OC[C@H](Cc1ccccc1)[C@H]2O
IC50 [4]: > 10000 nM
IC50 [5]: 540 nM
IC50 [1]: 17 nM
IC50 [2]: 37 nM

COc1ccc(C(=O)O)c(-c2ccc3c(c2)OC[C@H](Cc2ccccc2)[C@H]3O)c1
IC50 [3]: 160 nM

O[C@H]1c2ccc(-c3cc(F)ccc3-c3nn[nH]n3)cc2OC[C@@H]1Cc1ccccc1
IC50 [1]: 110 nM
IC50 [2]: 20 nM

OCc1ccc(C(F)(F)F)cc1-c1ccc2c(c1)OC[C@H](Cc1ccccc1)[C@H]2O
IC50 [1]: 9 nM
IC50 [2]: 1700 nM

O=C(O)c1ccc(C(F)(F)F)cc1-c1ccc2c(c1)OC[C@H](Cc1ccc(Cl)cc1)[C@H]2O
IC50 [1]: 58 nM
IC50 [2]: 70 nM

COC(=O)c1ccc(Cl)cc1-c1ccc2c(c1)OC[C@H](Cc1ccccc1)[C@H]2O
IC50 [1]: 6400 nM
IC50 [2]: 1700 nM

O=C(O)c1ccc(C(=O)O)c(-c2ccc3c(c2)OC[C@H](Cc2ccccc2)[C@H]3O)c1
IC50 [3]: > 1000 nM

O=C(O)c1ccccc1-c1ccc2c(c1)OC[C@H](Cc1ccccc1)[C@H]2O
IC50 [3]: 120 nM

O=C(O)c1ccc(Cl)cc1-c1ccc2c(c1)OC[C@H](Cc1ccccc1)[C@H]2O (stereo in doubt; 5)
IC50 [3]: 59 nM
IC50 [1]: 26 nM
IC50 [2]: 12 nM

O=C(O)c1ccc(Cl)cc1-c1ccc2c(c1)OC[C@H](Cc1ccccc1)[C@H]2O (stereo in doubt; 6) [listing 1 of 2 here]
IC50 [4]: 1300 nM
IC50 [5]: 265 nM
IC50 [1]: 30 nM
IC50 [2]: 14 nM

O=C(O)c1ccc(Cl)cc1-c1ccc2c(c1)OC[C@H](Cc1ccccc1)[C@H]2O (stereo in doubt; 6) [listing 2 of 2 here]
Ratio [6]: 4.9

O=C(O)c1ccc(Cl)cc1-c1ccc2c(c1)OC[C@H](Cc1ccccc1)[C@H]2O (stereo in doubt; 7)
IC50 [1]: 83 nM
IC50 [2]: 200 nM

O=C(O)c1ccc(F)cc1-c1ccc2c(c1)OC[C@H](Cc1ccccc1)[C@H]2O (stereo in doubt; 8)
IC50 [1]: 5 nM
IC50 [2]: 12 nM

O=C(O)c1ccc(F)cc1-c1ccc2c(c1)OC[C@H](Cc1ccccc1)[C@H]2O (stereo in doubt; 9) [listing 1 of 2 here]
IC50 [4]: 600 nM
IC50 [5]: 240 nM
IC50 [1]: 14 nM
IC50 [2]: 3 nM

O=C(O)c1ccc(F)cc1-c1ccc2c(c1)OC[C@H](Cc1ccccc1)[C@H]2O (stereo in doubt; 9) [listing 2 of 2 here]
Ratio [6]: 2.5

O=C(O)c1ccc(F)cc1-c1ccc2c(c1)OC[C@H](Cc1ccccc1)[C@H]2O (stereo in doubt; 10) [listing 1 of 2 here]
IC50 [4]: 3500 nM
IC50 [5]: 3000 nM
IC50 [1]: 5 nM
IC50 [2]: 27 nM

O=C(O)c1ccc(F)cc1-c1ccc2c(c1)OC[C@H](Cc1ccccc1)[C@H]2O (stereo in doubt; 10) [listing 2 of 2 here]
Ratio [6]: 1.2

O=C(O)c1c(F)cccc1-c1ccc2c(c1)OC[C@H](Cc1ccccc1)[C@H]2O (stereo in doubt; 12)
IC50 [1]: 10 nM
IC50 [2]: 22 nM

O=C(O)c1c(F)cccc1-c1ccc2c(c1)OC[C@H](Cc1ccccc1)[C@H]2O (stereo in doubt; 13) [listing 1 of 2 here]
IC50 [4]: 1000 nM
IC50 [5]: 400 nM
IC50 [1]: 40 nM
IC50 [2]: 11 nM

O=C(O)c1c(F)cccc1-c1ccc2c(c1)OC[C@H](Cc1ccccc1)[C@H]2O (stereo in doubt; 13) [listing 2 of 2 here]
Ratio [6]: 2.5

O=C(O)c1c(F)cccc1-c1ccc2c(c1)OC[C@H](Cc1ccccc1)[C@H]2O (stereo in doubt; 14)
IC50 [1]: 650 nM
IC50 [2]: 240 nM

O=C(O)c1ccc(C(F)(F)F)cc1-c1ccc2c(c1)OC[C@H](Cc1ccccc1)[C@H]2O (stereo in doubt; 15) [CP-195543]
IC50 [1]: 7 nM
IC50 [2]: 13 nM

O=C(O)c1ccc(C(F)(F)F)cc1-c1ccc2c(c1)OC[C@H](Cc1ccccc1)[C@H]2O (stereo in doubt; 16)
Ratio [6]: 2.3

O=C(O)c1ccc(C(F)(F)F)cc1-c1ccc2c(c1)OC[C@H](Cc1ccccc1)[C@H]2O (stereo in doubt; 16) [CP-195543]
IC50 [4]: 660 nM
IC50 [5]: 280 nM
IC50 [1]: 2.4 nM
IC50 [2]: 6.8 nM

O=C(O)c1ccc(C(F)(F)F)cc1-c1ccc2c(c1)OC[C@H](Cc1ccccc1)[C@H]2O (stereo in doubt; 17) [CP-195543]
IC50 [1]: 2 nM
IC50 [2]: 56 nM

O=C(O)c1ccc(Cl)cc1-c1ccc2c(c1)OC[C@H](Cc1ccc(-c3ccccc3)cc1)[C@H]2O (stereo in doubt; 22) [listing 1 of 2 here]
IC50 [4]: 1700 nM
IC50 [5]: 520 nM
IC50 [1]: 6 nM
IC50 [2]: 4 nM

O=C(O)c1ccc(Cl)cc1-c1ccc2c(c1)OC[C@H](Cc1ccc(-c3ccccc3)cc1)[C@H]2O (stereo in doubt; 22) [listing 2 of 2 here]
Ratio [6]: 3.3

O=C(O)c1ccc(Cl)cc1-c1ccc2c(c1)OC[C@H](Cc1ccc(-c3ccccc3)cc1)[C@H]2O (stereo in doubt; 23) [listing 1 of 2 here]
IC50 [4]: 3900 nM
IC50 [5]: 590 nM
IC50 [1]: 26 nM
IC50 [2]: 8 nM

O=C(O)c1ccc(Cl)cc1-c1ccc2c(c1)OC[C@H](Cc1ccc(-c3ccccc3)cc1)[C@H]2O (stereo in doubt; 23) [listing 2 of 2 here]
Ratio [6]: 6.6

O=C(O)c1ccc(F)cc1-c1ccc2c(c1)OC[C@H](Cc1ccc(-c3ccccc3)cc1)[C@H]2O (stereo in doubt; 24) [listing 1 of 2 here]
IC50 [4]: 700 nM
IC50 [5]: 280 nM
IC50 [1]: 56 nM
IC50 [2]: 4 nM

O=C(O)c1ccc(F)cc1-c1ccc2c(c1)OC[C@H](Cc1ccc(-c3ccccc3)cc1)[C@H]2O (stereo in doubt; 24) [listing 2 of 2 here]
Ratio [6]: 2.5

O=C(O)c1ccc(F)cc1-c1ccc2c(c1)OC[C@H](Cc1ccc(-c3ccccc3)cc1)[C@H]2O (stereo in doubt; 25) [listing 1 of 2 here]
IC50 [4]: 5100 nM
IC50 [5]: 700 nM
IC50 [1]: 5 nM
IC50 [2]: 14 nM

O=C(O)c1ccc(F)cc1-c1ccc2c(c1)OC[C@H](Cc1ccc(-c3ccccc3)cc1)[C@H]2O (stereo in doubt; 25) [listing 2 of 2 here]
Ratio [6]: 7.3

O=C(O)c1ccc(C(F)(F)F)cc1-c1ccc2c(c1)OC[C@H](Cc1ccc(-c3ccccc3)cc1)[C@H]2O (stereo in doubt; 26) [listing 1 of 2 here]
IC50 [4]: 1900 nM
IC50 [5]: 120 nM
IC50 [1]: 6 nM
IC50 [2]: 38 nM

O=C(O)c1ccc(C(F)(F)F)cc1-c1ccc2c(c1)OC[C@H](Cc1ccc(-c3ccccc3)cc1)[C@H]2O (stereo in doubt; 26) [listing 2 of 2 here]
Ratio [6]: 15.8

O=C(O)c1ccc(C(F)(F)F)cc1-c1ccc2c(c1)OC[C@H](Cc1ccc(-c3ccccc3)cc1)[C@H]2O (stereo in doubt; 27) [listing 1 of 2 here]
IC50 [4]: 4000 nM
IC50 [5]: 820 nM
IC50 [1]: 7 nM
IC50 [2]: 27 nM

O=C(O)c1ccc(C(F)(F)F)cc1-c1ccc2c(c1)OC[C@H](Cc1ccc(-c3ccccc3)cc1)[C@H]2O (stereo in doubt; 27) [listing 2 of 2 here]
Ratio [6]: 4.9

O=S(=O)(Nc1ccc(F)cc1-c1ccc2c(c1)OC[C@H](Cc1ccccc1)[C@H]2O)C(F)(F)F (stereo in doubt; 38) [listing 1 of 2 here]
IC50 [4]: 330 nM
IC50 [5]: 360 nM
IC50 [1]: 15 nM
IC50 [2]: 3.8 nM

O=S(=O)(Nc1ccc(F)cc1-c1ccc2c(c1)OC[C@H](Cc1ccccc1)[C@H]2O)C(F)(F)F (stereo in doubt; 38) [listing 2 of 2 here]
Ratio [6]: 0.9

O=S(=O)(Nc1ccc(F)cc1-c1ccc2c(c1)OC[C@H](Cc1ccccc1)[C@H]2O)C(F)(F)F (stereo in doubt; 39)
IC50 [4]: > 3000 nM
IC50 [5]: > 3000 nM
IC50 [1]: 44 nM
IC50 [2]: 50 nM
